“Also recorded” adds a separate entry of the source.
What was measured:
Pseudomonas aeruginosa [1] = settings: Rajamuthiah et al. (2015), compound alone; cited from earlier work
Enterococcus faecium = settings: Rajamuthiah et al. (2015); cited from earlier work
Enterobacter aerogenes = settings: Rajamuthiah et al. (2015), compound alone; cited from earlier work
Acinetobacter baumannii [2] = settings: Rajamuthiah et al. (2015), compound alone; cited from earlier work
MRSA = settings: Rajamuthiah et al. (2014, 2015); cited from earlier work
Klebsiella pneumoniae [3] = settings: Rajamuthiah et al. (2015), compound alone; cited from earlier work
Escherichia coli = test: Antibiotic combination growth assay (384-well checkerboard, OD600)
Pseudomonas aeruginosa [4] = test: as above
M. tuberculosis = settings: de Carvalho et al. (2011); cited from earlier work
Gram negative bacteria = settings: in combination with an efflux pump inhibitor (e.g. TolC efflux pump inhibitor); PCT/NZ2015/050192; cited from earlier work
E. coli strain 7KO:roGFP = test: Real-time measurement of intrabacterial redox potential (roGFP)
Protocol: (§1) Cells were fixed with N-ethylmaleimide at various time points post niclosamide incubation, and then passed through a flow cytometry system. The ImageStream recorded each individual cell and all images were processed automatically.
In vivo analysis of the intrabacterial redox potential was performed at 30° C. in a Synergy H1 Multimode plate reader (BioTek) with excitation measured at 405 and 480 nm and emission measured at 510 nm. Log phase bacterial cultures of 7KO:roGFP or 7KOΔtolC:roGFP were resuspended in 0.9% saline at OD 1.0, and 100 μL aliquots were loaded in individual wells of a black, clear-bottom 96-well plate. Background signals from the non-fluorescent (i.e., without pRSETB-RoGFP2) corresponding strain were obtained in the same experiment. Fluorescence signals were followed for 160-180 min, and the resulting 405/480 ratio signals were calculated. […] Reduced and oxidized controls were obtained within each experiment using a final concentration of 10 mM H2O2 or 1 mM DTT respectively.
Samples were analyzed by the AMNIS ImageStream as previously described (van der Heijden et al. (2015) Proc Natl Acad Sci USA 112, 560-565). The laser intensities for 405, 488, 658, and 785 nm were 100, 120, 20, and 3.8, respectively. The data files were further analyzed using IDEAS software, version 6.0.129.0, which is supplied by AMNIS. Bacterial cells were selected based on fluorescence at 660 nm. Every image of an infected cell was then selected by the program based on fluorescent intensity at 660 nm. Based on this selection, a mask was created that was used for analysis of the 405/480 nm ratio. The resulting 405/480 ratio signals were plotted in a histogram. Reduced and oxidized controls were obtained within each experiment, and all values were normalized to oxidized and reduced ratio values.
In vivo analysis of the intrabacterial redox potential was done at 30° C. in a Synergy H1 Multimode plate reader (BioTek) with excitation at 405 and 480 nm while emission was measured at 510 nm. Log phase bacterial cultures were resuspended in 0.9% saline at OD 1.0, and 200 μL per well were loaded in a black, clear-bottom 96-well plate. Background signals from the nonfluorescent corresponding strain were obtained in the same experiment.

macrophages = settings: cited from earlier work
[5] = test system: E. coli strain 7KOΔtolC:roGFP; test: Real-time measurement of intrabacterial redox potential (roGFP); settings: niclosamide alone in strain with in-frame deletion of tolC; FIG. 59
Protocol: as §1
In vivo analysis of the intrabacterial redox potential was performed at 30° C. in a Synergy H1 Multimode plate reader (BioTek) with excitation measured at 405 and 480 nm and emission measured at 510 nm. Log phase bacterial cultures of 7KO:roGFP or 7KOΔtolC:roGFP were resuspended in 0.9% saline at OD 1.0, and 100 μL aliquots were loaded in individual wells of a black, clear-bottom 96-well plate. Background signals from the non-fluorescent (i.e., without pRSETB-RoGFP2) corresponding strain were obtained in the same experiment. Fluorescence signals were followed for 160-180 min, and the resulting 405/480 ratio signals were calculated. […]
Samples were analyzed by the AMNIS ImageStream as previously described (van der Heijden et al. (2015) Proc Natl Acad Sci USA 112, 560-565). […] The data files were further analyzed using IDEAS software, version 6.0.129.0, which is supplied by AMNIS. Bacterial cells were selected based on fluorescence at 660 nm. […]
In vivo analysis of the intrabacterial redox potential was done at 30° C. in a Synergy H1 Multimode plate reader (BioTek) with excitation at 405 and 480 nm while emission was measured at 510 nm. […]

Salmonella enterica = test: Antibiotic combination growth assay (384-well checkerboard, OD600); format: cell-based; settings: in conjunction with a polymyxin (polymyxin B or polymyxin E (colistin)); Serovar Typhimurium (SL1344); FIGS. 33-36
[6] = test system: quorum sensing system in Pseudomonas aeruginosa; settings: among FDA-approved drugs tested, Imperi et al. (2013); cited from earlier work
Enterobacter cloacae = test: Antibiotic combination growth assay (384-well checkerboard, OD600); settings: in conjunction with a polymyxin (polymyxin B or polymyxin E (colistin)); subsp. cloacae ATCC 13047; FIGS. 29-32
[7] = test system: Mycobacterium tuberculosis; settings: cited from earlier work
Acinetobacter baumannii [8] = test: Antibiotic combination growth assay (384-well checkerboard, OD600); settings: in conjunction with a polymyxin (polymyxin B or polymyxin E (colistin)); ATCC type strain 19606; FIGS. 37-40
Klebsiella pneumoniae [9] = test: as above; settings: in conjunction with a polymyxin (polymyxin B or polymyxin E (colistin)); antibiotic-resistant and laboratory strains; FIGS. 21-28
[10] = test system: methicillin-resistant Staphylococcus aureus (MRSA); settings: Lau et al. (2015), under the assay conditions used; cited from earlier work
P. aeruginosa = settings: Imperi et al. (2013), FIG. 2A there; cited from earlier work

O=C(Nc1cc(Cl)cc(Cl)c1O)c1c(O)c(Cl)cc(Cl)c1Cl [oxyclozanide, 2,3,5-trichloro-N-(3,5-dichloro-2-hydroxyphenyl)-6-hydroxybenzamide]
inhibition of growth (Pseudomonas aeruginosa [1]): neither niclosamide nor oxyclozanide were active
toxicity to Enterococcus faecium (Enterococcus faecium): directly toxic
inhibition of growth (Enterobacter aerogenes): neither niclosamide nor oxyclozanide were active
inhibition of growth (Acinetobacter baumannii [2]): neither niclosamide nor oxyclozanide were active
toxicity / activity against MRSA (MRSA): directly toxic
inhibition of growth (Klebsiella pneumoniae [3]): neither niclosamide nor oxyclozanide were active

Gramicidin
growth inhibition effect of the combination (Escherichia coli; gramicidin with niclosamide, E. coli laboratory strain W3110, FIGS. 41-42): synergistic growth inhibition effect
growth inhibition effect of the combination (Pseudomonas aeruginosa [4]; gramicidin with niclosamide, antibiotic-resistant clinical isolate (NZ isolate AR 00/537), FIGS. 43-44): synergistic growth inhibition effect

O=[N+]([O-])c1ccc(O)c([N+](=O)[O-])c1 [2,4-dinitrophenol]
synergistic effect in combination with colistin (Escherichia coli; with colistin, E. coli MG1655, FIGS. 45, 46, 53-58): only weak synergistic effect

Cc1cc(C(C#N)c2ccc(Cl)cc2)c(Cl)cc1NC(=O)c1cc(I)cc(I)c1O (stereo not drawn) [closantel, N-[5-Chloro-4-[(4-chlorophenyl)-cyanomethyl]-2-methylphenyl]-2-hydroxy-3,5-diiodobenzamide]
toxicity / activity against MRSA (MRSA): active

CC(=O)Oc1ccccc1C(=O)Nc1ncc([N+](=O)[O-])s1 [nitazoxanide, 2-acetyloxy-N-(5-nitro 2-thiazolyl)benzamide]
uncoupling of the membrane potential (M. tuberculosis): uncoupled the membrane potential

O=C(Nc1ccc([N+](=O)[O-])cc1Cl)c1cc(Cl)ccc1O [niclosamide, N-(2′-chloro-4′-nitrophenyl)-5-chlorosalicylamide]
direct toxicity to Gram negative bacteria (Gram negative bacteria): directly toxic
inhibition of growth (Pseudomonas aeruginosa [1]): neither niclosamide nor oxyclozanide were active
toxicity to Enterococcus faecium (Enterococcus faecium): directly toxic
intracellular redox stress (405/480 nm ratio) (E. coli strain 7KO:roGFP; 1 μM niclosamide in combination with 0.5 μM colistin, FIG. 60 C): irreversible increase in intracellular redox stress
intracellular redox stress (405/480 nm ratio) (E. coli strain 7KO:roGFP; 1 μM niclosamide in combination with 0.5 μM polymyxin B, FIG. 60 D): irreversible increase in intracellular redox stress
intracellular redox stress (405/480 nm ratio) (E. coli strain 7KO:roGFP; 1 μM niclosamide in combination with 25 μM PAβN (TolC efflux pump inhibitor), FIG. 60 B): irreversible increase in intracellular redox stress
intracellular redox stress (405/480 nm ratio) (E. coli strain 7KO:roGFP; niclosamide alone, FIG. 59): did not experience significant redox stress
inhibition of growth (Enterobacter aerogenes): neither niclosamide nor oxyclozanide were active
toxicity against macrophages (macrophages): did observe toxicity
growth inhibition effect of the combination (Escherichia coli; in conjunction with a polymyxin (polymyxin B or polymyxin E (colistin)), antibiotic-resistant and laboratory strains, FIGS. 1-12): synergistic growth inhibition effect
intracellular redox stress (405/480 nm ratio) [5]: experienced increasing redox stress; also recorded: irreversible increase in intracellular redox stress
growth inhibition effect of the combination (Salmonella enterica): synergistic growth inhibition effect
anti-quorum sensing activity [6]: highest anti-quorum sensing activity
growth inhibition effect of the combination (Pseudomonas aeruginosa [4]; in conjunction with a polymyxin (polymyxin B or polymyxin E (colistin)), antibiotic-resistant and laboratory strains, FIGS. 13-20): synergistic growth inhibition effect
growth inhibition effect of the combination (Enterobacter cloacae): synergistic growth inhibition effect
MIC ([7]; Sun and Zhang (1999)): 0.5 to 1.0 µg/mL
activity against non-replicating M. tuberculosis ([7]; grown in low oxygen conditions): active
inhibition of growth (Acinetobacter baumannii [2]): neither niclosamide nor oxyclozanide were active
growth inhibition effect of the combination (Acinetobacter baumannii [8]): synergistic growth inhibition effect
growth inhibition effect of the combination (Klebsiella pneumoniae [9]): synergistic growth inhibition effect
uncoupling of the membrane potential (M. tuberculosis): uncoupled the membrane potential
minimum inhibitory concentration [10]: sub-micromolar
toxicity / activity against MRSA (MRSA): directly toxic
inhibition of growth (Klebsiella pneumoniae [3]): neither niclosamide nor oxyclozanide were active
inhibition of growth (P. aeruginosa): failed to inhibit the growth
